In patent US20040097467A1 (priority 2002, published 2004):
Like-named read-outs stand apart in the source and are kept apart here. Marks after values point to notes of the source that are not given here.

Legend:
rabbits = conditions: injection or ingestion; cited from earlier work
postmenopausal women = conditions: injection, 50 mg twice weekly, 14 months; cited from earlier work
ovariectomized rats = conditions: oral; cited from earlier work
[1] = tested on: Aortic Rings of Male JCR: LA-cp Rats; assay: Contractile response of aortic rings to phenylephrine; type: in vivo, rat; conditions: for Slope: logistic curve fit, phenylephrine contraction, treated cp/cp rats; for Maximum contraction: phenylephrine, aortic rings from treated cp/cp rats, mean +/− SEM
Source text: (§1) The JCR:LA-cp rat is known to spontaneously develop the range of dysfunction and pathophysiology associated with Metabolic Syndrome in humans, e.g., obesity, profound insulin resistance, atherosclerosis with enhanced vascular contractility, and reduced vascular relaxation. In addition, obese male rats spontaneously develop ischemic lesions of the heart and are prone to stress-induced myocardial infarcts that can be fatal. Insulin resistance develops rapidly in young rats between the ages of 4 and 7 weeks and is highly correlated with the cardiovascular disease. […] Consistent with this observation is the presence of glomerular sclerosis in the older rats.
(§2) Male JCR: LA-cp rats are maintained on a reversed light cycle at 3 or 7 weeks of age and acclimatized over a 1-week period. This allows metabolic studies to be conducted under subdued light, during the active (dark) phase of their diurnal cycle.
(§3) The rats are divided into four groups and receive one of the three aforementioned feed concentrations or unsupplemented feed. The dosage is maintained on either a mg/kg body weight basis, in which case the diet is formulated on a weekly basis to ensure each rat receives the intended dose on a mg/kg basis, or the specified concentration in the feed. Food consumption and body weights are measured twice weekly.
(§4) At 13 weeks of age, rats in the fed state are sacrificed under anesthesia with halothane in oxygen, and the following tissues are removed for processing as described below:
(§5) 1. Thoracic aorta for vascular function studies;
(§6) The following parameters are measured: Food intake and body weights, ulin response (through a meal tolerance test), plasma total lipid profile, ratio n to creatinine, plasma levels of leptin, C-reactive protein and tumor necrosis TNFα), vascular function studies on aortic rings (contractility/relaxation), levels and activity of peroxisome proliferator-activated receptors (PPARs), osition of plasma cholesterol esters, liver, pancreas, muscle and adipose phatidylinositol-3 (PI-3) Kinase Signaling. Histological analysis are obtained sclerosis; islet morphometry; liver-hepatic damage and lipid content; and al electron microscopy for lipid).

JCR:LA-cp rat = tested on: JCR:LA-cp rat
Source text: as §1, §2, §3
At 12 weeks of age, rats fast over the light (non-active) phase. A fasting blood sample is obtained from the tail and a standardized meal tolerance test (MTT) is performed. Following a 2-day recovery period, the rats are placed in a metabolism cage for 24 hours for the collection of urine.
as §4, §6

[2] = human volunteer, 8 g/l solution, three one-cup servings daily for three days, third-day 24-hour urine
[3] = tested on: Aortic Rings of JCR:LA-cp rats; assay: Relaxant response of aortic rings to acetylcholine; type: in vivo, rat; conditions: treated cp/cp rats; for Maximum Relaxation: acetylcholine, rings pre-contracted with phenylephrine; for Slope: logistic curve fit, acetylcholine relaxation
Source text: as §1, §2, §3, §4, §5, §6

[4] = tested on: Hearts of Male JCR: LA-cp Rats; assay: Parameters for Langendorf-perfused hearts: coronary flow, reactive hyperemia, bradykinin response; type: in vivo, rat; conditions: hearts of treated cp/cp rats; mean +/− SEM, 10 rats
Source text: Samples were taken from Langendorf-perfused hearts of JCR:LA-cp rats, control and arginine-treated.
as §1, §2, §3, §6

normal rodents = conditions: 1% added to normal diet (1.8% L-Arg content); cited from earlier work
[5] = tested on: subject at risk for bone loss; conditions: 500 mg total per day
overweight subject = conditions: 500 mg total per day, after several weeks
[6] = treatment begun at 4 weeks of age, at 12 weeks, vs control group

## C[Si](O)(O)O [monomethyltrisilanol]
rabbits
  intimal thickening and fragmentation of arterial elastic fibers: prevented
Postmenopausal women
  increase of femoral density (average): 4.7%

## orthosilicic acid
Ovariectomized rats
  bone formation rate: increased
  bone turnover: slowed

## N=C(N)NCCC[C@H](N)C(=O)O.O[Si](O)(O)O [arginine silicate]
[1]
  Slope: −1.01 +/− 0.17
  Maximum contraction: 1.44 ± 0.07 g
JCR:LA-cp rat; coronary blood flow, FIG. 1
  bradykinin response (FIG. 1): improved
JCR:LA-cp rat; dietary supplementation, compared to controls
  metabolic syndrome and cardiovascular disease (CVD) symptoms: reduced
JCR:LA-cp rat; [6]
  increases in serum insulin concentration: reduced
  increases in urinary albumin excretion: reduced
JCR:LA-cp rat; vs control animals
  body weight: reduction
  coronary risk lipids and lipoprotein concentrations: reduction
  endothelial function: improved
  gene expression and PPAR (α, γ) activity: enhanced
  glomerular sclerosis: decreased
  inflammatory markers: decreased levels
  insulin resistance: reduction
  insulin signaling pathway: enhanced
  ischemic lesions: reduced
  islet cell hyperplasia: lower levels
  sensitivity to insulin: greater
  stress induced myocardial infarct: reduced
  structural remodeling (e.g., enlargement of the heart): reduced
  tolerance to glucose: greater
  vascular contractility: decreased
  vascular relaxation: increased
[2]
  urinary silicon output vs baseline: increased more than tenfold
Aqueous solution 0.5 g/l
  level of silica (% SiO2): 17.5%
Aqueous solution 10 g/l, 1 hour
  level of silica (% SiO2): 11.8%
Aqueous solution 10 g/l, 2 hours
  level of silica (% SiO2): 10.8%
Aqueous solution 10 g/l, 24 hours
  level of silica (% SiO2): 9.2%
Aqueous solution 10 g/l, time 0
  level of silica (% SiO2): 17.5%
[3]
  Maximum Relaxation: 97.1 +/− 4.0%
  Slope: −0.729 +/− 0.105
[4]
  Bradykinin response Maximum response relative flow: 1.95 +/− 0.40
  Coronary flow: 10.8 ± 0.4 mL/min
  Reactive hyperemia: 186 +/− 25.3* %

## Cl.N=C(N)NCCC[C@H](N)C(=O)O [arginine HCl, reference compound]
[1]
  Slope: −1.03 +/− 0.14
  Maximum contraction: 1.84 ± 0.07 g
Normal rodents
  thymic weight: increased
[3]
  Maximum Relaxation: 90.4 +/− 3.5%
  Slope: −0.673 +/− 0.093
[4]
  Bradykinin response Maximum response relative flow: 1.48 +/− 0.55
  Coronary flow: 10.5 ± 0.3 mL/min
  Reactive hyperemia: 170 +/− 11** %

## arginine silicate
[5]; after several months
  bone mineral density: optimal level of bone density
[5]; after several weeks
  serum N-telopeptide of collagen type I and osteocalcin (markers of bone resorption and formation): returned to their normal ranges
Overweight subject
  blood lipid concentrations (cholesterol and triglycerides): reduced
  glucose metabolism: normalized

## NCCCC[C@H](N)C(=O)O.O[Si](O)(O)O [lysine silicate]
rabbits
  intimal thickening and fragmentation of arterial elastic fibers: prevented
